Experimental data taken from US20040191344A1, “Pharmaceutical composition for prophylaxis or treatment of osteoporosis, and method to prepare the same” (priority 2003, published 2004).

System: rats with ovariectomy-induced osteoporosis
Assay: Ovariectomy-induced osteoporosis model
Type: in vivo, rats (strain Sprague-Dawley)
Settings: 3 months
Experimental: In order to determine the efficacy against osteoporosis in rats (strain Sprague-Dawley), two animal test models were constructed to illustrate the outcomes against normal osteoporosis or estrogen-deficiency-induced osteoporosis, respectively.
In the animal test models, retinoic acid-induced osteoporosis model was used as normal osteoporosis model and ovariectomy-induced model was used as the model for osteoporosis induced by estrogen deficiency.
The following experiment was conducted to test the effects of the pharmaceutical composition of the present invention on rats with ovariectomy-induced osteoporosis in terms of bone mineral contents, bone mineral density, biomechanical index and bone histomorphometry as well as illustrate the claimed efficacy of the pharmaceutical composition.
The ovariectomized animal model was constructed as follows. Anesthesia of the rats was conducted by intra-abdominal injection of 20% urethane according to the dosage of 1 g/kg. The rats were then placed face down, incised in both sides of the spinal cord under aseptic condition, and their ovaries were removed to attain an osteoporosis animal model. For Normal Group, a piece of fat was removed on both sides of back spinal cord. After five days, 72 animals were chosen from the living rats and randomly divided into 9 groups of 8 animals. Administrations were given according to the following conditions:
Normal Group (pseudo-operation): CMC-Na solution 10 ml/kg/d
Affected Group: CMC-Na solution 10 ml/kg/d
Positive Group (Nylestriol): batch no. 020701, provided by Shianghai Hualian Pharmaceuticals, 1 mg/kg, once a week
Subgroup I—Extract of Semen Cuscutae and Fructus Cindii/Composite Groups
(Medium Dosage): 200 mg/kg
Subgroup II—Sole Extract of Semen Cuscutae (Unitary Group)
Subgroup III—Low Dosage Plus Calcium-containing Substance 100 mg/kg, 200 mg/kg in Total
Subgroup IV—Unitary Group Plus Calcium-containing Substance in a Ratio of 70/30, 200 mg/kg in Total
The animals were continuously administered for 3 months. The effects of the pharmaceutical composition of the present invention on morphological alteration of the femur of rats were analyzed using a Dual Energy X-Ray Absorptiometry (DEXA) two days before end of the experiment under the anesthesia of ether. The femur and tibia bone were peeled and measured. Those pieces were soaked in 4% glutaraldehyde (0.1M, pH 7.3) for more than 24 hours. Later on, the vector side of the femur was hacksawed with dental diamond saw blades (grindstone). One piece from each animal was removed and cleaned in 10% sodium hypochlorite solvent for 6 hours, followed by ultra sound wash for 15 minutes.
It was then dehydrated by ethanol-gradient, soaked in ethyl ether, air dried, and then treated with ion sputtering coating (IB-3). The BMD was assessed by dual-energy X-ray absorptiometry (DEXA), and the SX-40 X-ray bone densitometer on 20,000 volt. The graphs were taken by CMIAS-98A image analyzer.
The bones were dried at […] in the oven and then weighed to get the dry weight. The dry bones were carbonated and then incinerated in 800° C. muffle furnace for 6 hours. The ashes were weighed and then dissolved in 6N HCl, in order to measure the Ca and P levels.

C#C[C@]1(O)[C@H](O)C[C@H]2[C@@H]3CCc4cc(OC5CCCC5)ccc4[C@H]3CC[C@@]21C [Nylestriol]
Ash Mass Index (1 mg/kg once a week): 0.649 ± 0.024 g/g
EI (1 mg/kg once a week): 28.55 ± 7.03 KN · mm^2
K (spring strength) (1 mg/kg once a week): 248.91 ± 53.04 N/mm
Pb (maximum strength) (1 mg/kg once a week): 97 ± 9.4 N
δb (maximum torsion index) (1 mg/kg once a week): 0.54 ± 0.17 mm
σb (tensile strength) (1 mg/kg once a week): 147.79 ± 13.95 MPa
BMD level, Femur (DEXA, femoral head, 1 mg/kg/w): 0.353 ± 0.030 g/cm^2
BMD level, Lumbar vertebra (DEXA, 1 mg/kg/w): 0.263 ± 0.015 g/cm^2
Ca level (bone ash, 1 mg/kg once a week): 0.254 ± 0.029 g/g
P level (bone ash, 1 mg/kg once a week): 0.130 ± 0.014 g/g
Average Trabecular Width (femur, 1 mg/kg/w): 146.89 ± 22.27 μm
Percentage of Trabecular Area (femur, 1 mg/kg/w): 0.9148 ± 0.0371
